Assay [1] concerns the target Integrin alpha-V/beta-5 (Homo sapiens) (UniProt P06756+P18084). The assay is described as follows: Inhibition of alpha-V-beta-5 receptor. The assay is classed as protein-complex assay.
The target in assay [2] is Integrin alpha-V/beta-3 (Homo sapiens) (UniProt P05106+P06756). The assay is described as follows: Inhibition of alpha-V-beta-3 receptor. The assay is classed as protein-complex assay.

Each structure is given as a SMILES string.

Regarding `N=C(N)NCCC[C@@H]1NC(=O)[C@H]2C/C=C\C[C@H](NC(=O)[C@H](CC(=O)O)NC(=O)CNC1=O)C(=O)N2`, the values for the Activity in assay [1] and in assay [2] were 0.538 µM and 0.159 µM, respectively.

For `N=C(N)NCCC[C@@H]1NC(=O)[C@@H]2CCCC[C@@H](NC(=O)[C@H](CC(=O)O)NC(=O)CNC1=O)C(=O)N2`, the Activity is over 5 µM in assay [1] and 0.615 µM in assay [2].

On to `N=C(N)NCCC[C@@H]1NC(=O)[C@@H]2C/C=C\C[C@@H](NC(=O)[C@H](CC(=O)O)NC(=O)CNC1=O)C(=O)N2`, for which the Activity is over 5 µM in assay [1] and 0.925 µM in assay [2].

For the compound `N=C(N)NCCC[C@@H]1NC(=O)[C@H]2CCCC[C@H](NC(=O)[C@H](CC(=O)O)NC(=O)CNC1=O)C(=O)N2`, the figures for the Activity in assay [1] and in assay [2] were over 5 µM and 0.28 µM, respectively.

Values taken from ChEMBL document CHEMBL1146186, “Synthesis and biological evaluation of type VI beta-turn templated RGD peptidomimetics” (Bioorg Med Chem Lett, 2006).
